The values below come from PubChem BioAssay (NCI).

Among the test systems are SNB-75 CNS; K-562 leukemia; MDA-MB-435; SK-MEL-28 melanoma; OVCAR-3 ovarian; UO-31 renal; U251 CNS; A549 NSCLC; HT29 colon; NCI-H226 lung; CAKI-1 renal; OVCAR-5 ovarian; HCC-2998 colon; SF-539 CNS; SN12C renal; OVCAR-8 ovarian; M14 melanoma; KM12 colon.
Holding throughout (assay): NCI tumour cell line growth inhibition, 48 h

Molecules are shown by their SMILES.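 Method: 48-hour compound exposure of cells in 96-well plates, five concentrations, linear interpolation of endpoints. Definition used: TGI = concentration required for complete inhibition of growth.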

Turning to `CC1Cc2c(Br)nc(N)nc2NC1=O` (stereo not drawn), the TGI in the assay on SNB-75 CNS, in the assay with K-562 leukemia, with MDA-MB-435, in the assay with SK-MEL-28 melanoma, in the assay on OVCAR-3 ovarian and in the assay with UO-31 renal was above 100 µM throughout. The TGI in the assay with U251 CNS, in the assay with A549 NSCLC, in the assay on HT29 colon, in the assay on NCI-H226 lung, in the assay with CAKI-1 renal and with OVCAR-5 ovarian was above 100 µM throughout. Further, the TGI in the assay with HCC-2998 colon, in the assay on SF-539 CNS, in the assay with SN12C renal, in the assay on OVCAR-8 ovarian, with M14 melanoma and with KM12 colon was above 100 µM throughout.

With `CC(C)CNC(=O)CCc1cccc2c1oc1c(CCN)cccc12`, the TGI came out at 20.1 µM with SNB-75 CNS; 14.2 µM with K-562 leukemia; 25.2 µM with MDA-MB-435; 23.8 µM with SK-MEL-28 melanoma; 17.2 µM in the assay with OVCAR-3 ovarian; 25.2 µM in the assay on UO-31 renal. In addition, the TGI with U251 CNS is 18.9 µM; in the assay with A549 NSCLC, 35.6 µM; in the assay on HT29 colon it was 22.6 µM; in the assay with NCI-H226 lung, 33.6 µM; in the assay on CAKI-1 renal it was 31.5 µM; in the assay on OVCAR-5 ovarian it was 28.7 µM. Moreover, the TGI in the assay with HCC-2998 colon came out at 29.3 µM; with SF-539 CNS, 30.3 µM; in the assay with SN12C renal, 32.2 µM; in the assay on OVCAR-8 ovarian, 34.1 µM; in the assay on M14 melanoma, 30.5 µM; in the assay on KM12 colon, 28.4 µM.

Take `CC(=N/NC(=S)N1CCCCC1)/C(=N\NC(=S)N1CCCCC1)c1ccccc1`: the TGI is 3.59 µM with SNB-75 CNS; above 100 µM in the assay on K-562 leukemia; 4.07 µM in the assay on MDA-MB-435; 3.94 µM with SK-MEL-28 melanoma; 3.34 µM with OVCAR-3 ovarian; 4.03 µM in the assay on UO-31 renal. Moreover, the TGI was 3.53 µM in the assay on U251 CNS; 4.5 µM in the assay with A549 NSCLC; 4.71 µM in the assay with HT29 colon; 3.47 µM in the assay with NCI-H226 lung; 4.22 µM in the assay on CAKI-1 renal; 3.87 µM in the assay with OVCAR-5 ovarian. Also, the TGI amounted to 4.48 µM in the assay on HCC-2998 colon; 10.6 µM with SF-539 CNS; 3.43 µM with SN12C renal; 6.24 µM in the assay on OVCAR-8 ovarian; 3.64 µM in the assay with M14 melanoma; 3.99 µM with KM12 colon.

Regarding `OC(c1nc2ccccc2s1)(C(F)(F)F)C(F)(F)F`, the TGI with SNB-75 CNS, with K-562 leukemia, with MDA-MB-435, in the assay on SK-MEL-28 melanoma, with OVCAR-3 ovarian and in the assay with UO-31 renal was above 100 µM in each case. The TGI with U251 CNS, in the assay on A549 NSCLC, with HT29 colon, in the assay with NCI-H226 lung, with CAKI-1 renal and with OVCAR-5 ovarian was above 100 µM in each case. In addition, the TGI with HCC-2998 colon, in the assay with SF-539 CNS, in the assay with SN12C renal, in the assay on OVCAR-8 ovarian, in the assay on M14 melanoma and in the assay with KM12 colon was above 100 µM in each case.

For the molecule `C=C1C(=O)O[C@@H]2[C@H]1C[C@@H](O)[C@H](C)[C@@](O)(C(=O)/C=C/C)[C@H]2OC(=O)C(C)CC` (stereo partly drawn), the TGI in the assay on SNB-75 CNS was found to be 51.6 µM; in the assay on K-562 leukemia it was 23.6 µM; with MDA-MB-435, 11.1 µM; in the assay with SK-MEL-28 melanoma it was 24.2 µM; with OVCAR-3 ovarian, 10.4 µM; in the assay on UO-31 renal, 4.06 µM. In addition, the TGI in the assay with U251 CNS is 26.6 µM; with A549 NSCLC, 33 µM; in the assay with HT29 colon, 5.21 µM; with NCI-H226 lung, above 100 µM; in the assay on CAKI-1 renal, 2.91 µM; in the assay on OVCAR-5 ovarian, 14.5 µM. Further, the TGI in the assay on HCC-2998 colon was above 67.4 µM; in the assay with SF-539 CNS, 15.8 µM; with SN12C renal, 7.51 µM; in the assay with OVCAR-8 ovarian, 6.4 µM; in the assay with M14 melanoma, 9.03 µM; with KM12 colon it was 33.1 µM.

As to `O=C(Nc1cc(C(=O)Nc2cccc(S(=O)(=O)O)c2)cc(C(=O)Nc2cccc(S(=O)(=O)O)c2)c1)c1cccc(C(=O)Nc2cc(C(=O)Nc3cccc(S(=O)(=O)O)c3)cc(C(=O)Nc3cccc(S(=O)(=O)O)c3)c2)c1`, the TGI in the assay on SNB-75 CNS is above 100 µM; with K-562 leukemia, 58.6 µM; in the assay on MDA-MB-435 it was above 100 µM; in the assay with SK-MEL-28 melanoma it was above 100 µM; with OVCAR-3 ovarian, above 100 µM; in the assay with UO-31 renal, above 100 µM. Moreover, the TGI in the assay on U251 CNS, in the assay with A549 NSCLC, in the assay on HT29 colon, in the assay with NCI-H226 lung, in the assay with CAKI-1 renal and with OVCAR-5 ovarian was above 100 µM throughout. Also, the TGI in the assay with HCC-2998 colon, in the assay with SF-539 CNS, in the assay on SN12C renal, in the assay on OVCAR-8 ovarian, in the assay with M14 melanoma and in the assay on KM12 colon was above 100 µM each time.
